Laboratory results taken from US20100081631A1, “METHODS AND COMPOSITIONS FOR TREATING GASTROINTENSTIAL DISORDERS” (priority 2006, published 2010).

Key:
[1] = system: PI3k/Akt pathway (Akt phosphorylation) in IEC-18 cells; test: Akt phosphorylation Western blot in IEC-18 cell lysates; type: cell-based, rat; details: 24 hours; for Akt phosphorylation: 5 μM SC-560, 10 μM celecoxib or 10 μM indomethacin
Procedure: Rat intestinal epithelial cells (IEC-18 cells) are immortalized normal epithelial cells purchased from the American Type Culture Collection (ATCC). For these experiments, IEC-18 cells were cultured in high glucose Delbecco's Modified Eagle's Medium (DMEM) at 37° C. under 5% CO2 and incubated for 24 hours with either a) 5 μM of the COX-1 inhibitor SC-560 (purchased from Sigma-Aldrich, St. Louis, Mo.), 10 μM of the COX-2 inhibitor celecoxib, or 10 μM of the COX-½ inhibitor indomethacin. Drugs were provided in a 0.1% dimethylsulfoxide (DMSO) vehicle.
The PI3k/Akt pathway is monitored using the following general assay procedure. Following incubation cell lysates are collected with lysis buffer containing phosphatase and proteinase inhibitors. The supernanats are collected and protein concentrations are measured. Then SDS(sodium dodecyl sulfate) sample buffers are made to make sure final protein concentration is equal in each sample and boiled for minutes at 100° C. Then the samples are loaded on to a 4%-12% pre-made SDS-PAGE (polyacrylamide gel electrophoresis) and the gel is developed under electrophoresis. When the samples reach the bottom of the gel, the gel is removed from the electrophoresis equipment and transferred to a nitrocellulose membrane and the membrane blocked with milk. The membrane is incubated with a primary antibody selective for either a) total Akt or b) phosphrylated Akt overnight at 4° C. A secondary antibody having a conjugated horseradish peroxidase (HRP) moiety is used to bind the constant regions of the primary antibodies. The membrane is washed under conditions favoring selective antibody binding. Finally, the HRP is detected using a enzymatically initiated chemiluminescent substrate such as Super Signal® ELISA Pico Substrates, available from Thermo Fisher Scientific.

[2] = system: C57BL/6 mice; test: Acetic acid-induced gastric ulcer model in mice; type: in vivo
Description: Gastric ulcers were produced in C57BL/6 mice by using 40% acetic acid as follows. Animals were anesthetized. The abdomen of each animal was surgically opened, and the stomach exposed. A 3 mm curette was placed onto the anterior surface of each stomach. A solution of 40% acetic acid was placed inside the curette. The curette prevents damage to surrounding tissue. The acetic acid treatment causes damage to blood vessels of the stomach, producing chemical death to the mucous layer.
On the third day following induction of ulceration, the animals were given various treatments by oral gavage. First, vehicle (4% DMSO-corn oil) or a low dose (3 mg/kg/day) of indomethacin in 4% DMSO-corn oil was used. This dose of indomethacin has been reported not to induce gross lesions on the stomach, although it can inhibit the production of endogenous prostglandin PGE2.
On day 7 blood was withdrawn for hematology analysis from sacrificed animals, and subjected to automated testing for standard hematological parameters. Ulcer areas (defined as the regions of the stomach not covered by stomach mucosal epithelial cells) were measured by dissection microscopy for macroscopic analysis; additionally, the widest section of each ulcer sample was measured and observed as the size index under microscopy. The stomachs were processed for pathological analysis by dissection and section through the widest part of the ulcer. Sections were stained using hematoxylin & eosin.
Mice were then treated with 10 nM Compound 7 or the vehicle under otherwise identical conditions. In this experiment the vehicle was 4% DMSO in corn oil in a volume of 0.1 ml. The mice were sacrificed and the stomachs examined on either the 7th day or the 11th day following ulceration. […] Under dissection microscopy, the areas of the ulcers in mice treated with Compound 7 were 60% and 32% of the control on days 7 and 11, respectively. […] (FIG. 4B).

[3] = system: IEC-18 cells; test: Doxorubicin/celecoxib-induced apoptosis of IEC-18 cells by flow cytometry; type: cell-based, rat; details: 48 hours
Procedure: IEC-18 cells were cultured in high glucose DMEM containing 10% fetal bovine serum (FBS), 1% penicillin, 1% streptomycin, and 50 unit insulin essentially as indicated in Example 101 for 48 hours in the presence of the 0.05 μg/ml chemotherapy agent doxorubicin to induce apoptosis. In the presence of 10 μM celecoxib (which inhibits endogenous prostaglandin PGE2 expression), apoptosis of doxorubicin-treated IEC-18 cells proceeds within 48 hours at such very low concentrations of doxorubicin. Finally, the cells collected by trypsin were subjected to flow cytometry analysis for identification of the percentage of cells in different stages of the cell cycle.
Cultured cells were prepared for flow cytometry by trypsinization and centrifugation. The cells were then washed with cold phosphate buffered saline solution (PBS), then fixed with cold 70% ethanol overnight. The cells were then again washed with PBS and stained with propidium iodide, a nucleic acid intercalating dye, in the presence of RNase for 30 minutes at room temperature. The cells were then sorted using the buffer provided by Becton-Dickenson, the maker of the flow cytometry equipment.
Additionally, using CellQuest® software (Becton-Dickenson) a quantification of the percent of apoptosis occurring in IEC-18 cells after 48 hours' incubation was performed. […]

[4] = molecular target: T1, human EP4 prostaglandin receptor (Homo sapiens, UniProt P35408); test: Activity test measuring changes in intracellular cAMP in HEK-EBNA cells; type: cell-based; details: HEK-EBNA cells expressing human EP4, read-out: in vitro EC50 (concentration at 50% of maximal efficacy)
T1 construct: expressed in transfected cells; host or cells: HEK-EBNA cells
Procedure: The dosage of the prostaglandin EP4 agonist component employed in accordance with the present invention varies over a relatively wide range and depends on factors well known in the medicinal arts including, but not limited to: the weight of the individual to whom the agonist component is administered, the general health status/condition of such individual, the disease/condition sought to be treated/prevented by such administration, the severity of such disease/condition in such individual, the potency of the specific EP4 receptor agonist component being administered, the sensitivity of such individual to the specific agonist component being administered, the mode of administration, the age of such individual, the sex of such individual, the pregnancy status of such individual, the other ongoing drug therapies being administered to such individual and the like factors. The compound (Z)-7-{(1R,4S,5R)-5-[(E)-5-(3-chloro-benzo[b]thiophene-2-yl)-3-hydroxy-pent-1-enyl]-4-hydroxy-3,3-dimethyl-2-oxo-cyclopentyl}-hept-5-enoic acid has an in vitro EC50 (concentration at 50% of maximal efficacy) of between 0.03 and 0.1 nM in both the FLIPR® Ca^++ flux test and in an alternate activity test measuring changes in the intracellular concentration of cAMP in HEK-EBNA cells expressing the human EP4 prostaglandin receptor.

[5] = system: C57BL/6 mice; test: Acetic acid-induced gastric ulcer model in mice; type: in vivo; remark: listed apart in the source
[6] = molecular target: T1, human EP4 prostaglandin receptor; test: FLIPR Ca++ flux test; type: cell-based; details: cells expressing human EP4, read-out: in vitro EC50 (concentration at 50% of maximal efficacy)
Procedure: HEK-293 (EBNA) cells, stably expressing one type or subtype of recombinant human prostaglandin receptors (prostaglandin receptors expressed: hDP/Gqs5; hEP1; hEP2/Ggs5; hEP3A/Gqi5; hEP4/Ggs5; hFP; hIP; hTP), are cultured in 100 mm culture dishes in high-glucose DMEM medium containing 10% fetal bovine serum, 2 mM 1-glutamine, 250 μg/ml geneticin (G418) and 200 μg/ml hygromycin B as selection markers, and 100 units/ml penicillin G, 100 μg/ml streptomycin and 0.25 μg/ml amphotericin B.
Transfectant cells are seeded at a density of 5×10^4 cells per well in Biocoat®. Poly-D-lysine-coated black-wall, clear-bottom 96-well plates (Becton-Dickinson) and allowed to attach overnight in an incubator at 37° C. Cells are then washed two times with HBSS-HEPES buffer (Hanks Balanced Salt Solution without bicarbonate and phenol red, 20 mM HEPES, pH 7.4) using a Denley Cellwash plate washer (Labsystems). […]
Cells are excited with an Argon laser at 488 nm, and emission measured through a 510-570 nm bandwidth emission filter (FLIPR.™., Molecular Devices, Sunnyvale, Calif.). […] The peak increase in fluorescence intensity is recorded for each well. […] The peak fluorescence change in each drug-containing well is then expressed relative to the controls. […]

[7] = 0.1 mg/kg/d Compound 7 + 3 mg/kg/d indomethacin vs control mice
[8] = indomethacin 3 mg/kg/day oral gavage, day 7, vs vehicle

T1 sequence (P35408 whole entry): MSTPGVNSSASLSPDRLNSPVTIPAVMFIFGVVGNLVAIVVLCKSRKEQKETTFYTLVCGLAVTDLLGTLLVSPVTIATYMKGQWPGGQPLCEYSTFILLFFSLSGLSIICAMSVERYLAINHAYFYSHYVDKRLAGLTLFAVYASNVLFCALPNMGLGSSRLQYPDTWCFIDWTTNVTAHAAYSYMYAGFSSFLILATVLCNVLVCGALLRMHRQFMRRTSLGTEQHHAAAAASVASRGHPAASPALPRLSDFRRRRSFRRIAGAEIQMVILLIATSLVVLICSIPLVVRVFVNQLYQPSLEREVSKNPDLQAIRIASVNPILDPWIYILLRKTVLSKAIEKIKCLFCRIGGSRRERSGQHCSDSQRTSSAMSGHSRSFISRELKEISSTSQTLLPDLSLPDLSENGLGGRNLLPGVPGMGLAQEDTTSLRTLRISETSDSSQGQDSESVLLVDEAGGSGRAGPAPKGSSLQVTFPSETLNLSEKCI

Compound: CC1(C)C(=O)[C@H](C/C=C\CCCC(=O)O)[C@@H](/C=C/C(O)CCc2sc3ccccc3c2Cl)[C@@H]1O (stereo partly drawn) [Compound 7, (Z)-7-{(1R,4S,5R)-5-[(E)-5-(3-chloro-benzo[b]thiophene-2-yl)-3-hydroxy-pent-1-enyl]-4-hydroxy-3,3-dimethyl-2-oxo-cyclopentyl}-hept-5-enoic acid]
- Akt phosphorylation on co-incubation with indomethacin ([1]; 10 nM Compound 7 + 10 μM indomethacin vs indomethacin alone): maintained Akt phosphorylation at higher levels
- ulcer sizes vs vehicle ([2]; 10 nM Compound 7, vehicle 4% DMSO in corn oil, day 7 or 11): significantly smaller ulcer sizes
- areas of the ulcers under dissection microscopy ([2]; Compound 7, day 7): 60 % of the control
- areas of the ulcers under dissection microscopy ([2]; Compound 7, day 11): 32 % of the control
- inflammatory cell infiltrations and necrotic tissue in granulation tissue ([2]; Compound 7 vs control group): significantly less
- gross and microscopic morphologies of the ulcer tissue ([2]; Compound 7 vs vehicle, day 7): stimulates healing of ulcer and facilitate the removal of necrosis tissue
- percent apoptosis ([3]; 10 nM Compound 7 added to 0.05 μg/ml doxorubicin + 10 μM celecoxib): approximately 5%
- EC50 [4]: 30 to 100 pM
- hematocrit (HCT) [5, 7]: significantly greater
- hemoglobin (HGB) [5, 7]: significantly greater
- number of red blood cells (RBC) ([5]; 0.1 mg/kg/d Compound 7 + 3 mg/kg/d indomethacin vs control mice, n=20): significantly greater
- blood loss (hematology) ([5]; 0.1 mg/kg/d Compound 7 + 3 mg/kg/d indomethacin vs indomethacin alone): significantly less blood loss
- EC50 [6]: 30 to 100 pM

Compound: COc1ccc(-n2nc(C(F)(F)F)cc2-c2ccc(Cl)cc2)cc1 [SC-560]
- Akt phosphorylation [1]: inhibited Akt phosphorylation

Compound: COc1cccc2c1C(=O)c1c(O)c3c(c(O)c1C2=O)C[C@@](O)(C(=O)CO)C[C@@H]3O[C@H]1C[C@H](N)[C@H](O)[C@H](C)O1 [doxorubicin, reference compound]
- percent apoptosis ([3]; 0.05 μg/ml doxorubicin with 10 μM celecoxib): about 13%

Compound: COc1ccc2c(c1)c(CC(=O)O)c(C)n2C(=O)c1ccc(Cl)cc1 [indomethacin, reference compound]
- Akt phosphorylation [1]: inhibited phosphorylation of Akt to a greater extent that did SC-560 or celecoxib
- spontaneous healing of gastric ulcers (gross and microscopic ulcer size) ([2]; indomethacin 3 mg/kg/day oral gavage from day 3, day 7, vs vehicle): delayed the spontaneous healing of gastric ulcers
- blood loss at ulcer sites [2, 8]: exacerbate blood loss at ulcer sites
- inflammation (lymphocytes in the blood) [2, 8]: exacerbated inflammation
